From PMC6102691, “Identification of a novel ligand for the ATAD2 bromodomain with selectivity over BRD4 through a fragment growing approach” (Organic & Biomolecular Chemistry, 2018)

What was measured:
[1] = molecular target: BRD4 (Homo sapiens, UniProt O60885); assay: Surface plasmon resonance (SPR) direct binding to BRD4; details: for Kd: SPR format assay, Kd above the top concentration projected by extrapolation (extrapolated Rmax from control compound); for selectivity between ATAD2 and BRD4, in words: SPR, BRD4 versus ATAD2
Description: Surface plasmon resonance (SPR) was used to assess the direct binding of the fragments and provide Kd values for binding to both ATAD2 and BRD4. SPR can yield artefactual data where the concentration of a small-molecular analyte exceeds ∼250 μM, and accordingly, this was the highest concentration used in the assays. Where the Kd exceeded this limit, projected Kds were determined by extrapolation, using the observed response units for compound binding (RU) relative to the molecular weight of a known control compound.[23]
(§1) 12.5 μM using an Echo 550 (Labcyte). Each well was backfilled to a final volume of 200 nl (for the […]), resulting in final DMSO concentrations of 2 %. 5 μl of GST-ATAD2 was added to each well and incubated for 30mins resulting in a final concentration of 5 nM.
(§2) 5μl of biotinylated-histone H4 peptide (SGRG-K(Ac)-GG-K(Ac)-GLG-K(Ac)-GGA-K(Ac)- RHRKVGG-K(Biotin)) was then added to each well at a final concentration of 500nM. Both GST-ATAD2 and peptide were diluted in buffer B (50 mM Tris pH 7.5, […], 1 mM DTT, 100 μg/ml bovine serum albumin (BSA)). The plate was then incubated at room temperature for 30mins and then 5 μl LanthaScreen® Tb-anti-GST Antibody (Life Technologies) at final concentration of 5 nM was added to each well and incubated for an additional 30mins. 5 μl of streptavidin-XLL65 (Cisbio Assay) at a final concentration of […] was added to each assay well. Both dyes were diluted in buffer C (50 mM Tris pH 7.5, […], 100 μg/ml BSA). The plate was incubated at room temperature for a further 30mins and then read using a PheraStar FS (BMG Labtech). The data were analysed using Graphpad […]
(§3) 1.4 Surface Plasmon Resonance (SPR).
(§4) SPR-based ligand binding assays were performed using Biacore S200 (GE Healthcare) at 25 °C using single cycle affinity.
(§5) ATAD2N1064A was achieved using standard amine coupling on a CM5 chip surface. The surface was prepared through activation with EDC/NHS, followed by injection of 10 µg/ml of respective proteins until target level 8000 RU was reached. The surface was then quenched using 1 M Ethanolamine and washed with running buffer 10 mM HEPES, 150mM NaCl, 0.01% TWEEN20, 0.5 mM TCEP and 1% DMSO with a flow rate of […]. Compounds were injected in a dose-response manner (8 concentration points ranging from 0-200 µM) in series across the control, ATAD2, BRD4, and ATAD2-N1064A flow cells using solvent correction to account for bulk refractive index changes. The reference control channel was subtracted […]
(§6) from immobilised channels and dose-response data was fitted using a steady state constant Rmax 1:1 binding model, using an extrapolated Rmax determined from a binding control compound in those cases where the extrapolated Kd value was greater than the top concentration used in the experiment (200 µM). K d values are reported to the nearest 100th of micromolar. 1 […]
(§7) Crystallisation was performed at 20 °C using the hanging drop vapor diffusion method.
(§8) Crystals of ATAD2 were grown by mixing 2µl ATAD2 at 7mg/ml and 2µl precipitant containing 0.1 M BIS-TRIS pH 6.5 and 2.0 M ammonium sulfate. Crystals were harvested in a diffusion solution containing 10 mM compound, 5% DMSO, 25 mM HEPES pH 7.5, 75 mM NaCl, 50 mM BIS-TRIS pH 6.5 and 1.0 M Ammonium Sulfate for 48hrs. Prior to data collection the crystals were cryo protected with the addition of 25% (v/v) ethylene glycol to the diffusion solution. X-ray diffraction data were recorded at Diamond Light Source (Harwell, Oxfordshire, UK). Data processing was carried out using XDS, POINTLESS/AIMLESS2 and other programs of the CCP4i suite3 run through the CCP4i2 gui. Structures were solved by molecular replacement using PHASER4 and pdb 3DAI as a starting model. REFMAC5 was employed for refinement, and model building was performed using COOT6. PDBs were deposited within the protein database www.pdb.org using accession codes: 11 XXXX, 15a […]

[2] = molecular target: T1, GST-ATAD2 bromodomain / biotinylated acetylated histone H4 peptide (Homo sapiens, UniProt Q6PL18); assay: ATAD2-histone displacement HTRF assay; type: binding; details: for IC50: HTRF format assay, highest concentration 1000 μM; for ATAD2 LE: Ligand efficiency (LE) = 1.4(–log IC50)/N, N = number of non-hydrogen atoms, from HTRF IC50; for ATAD2 inhibition in HTRF, in words: highest concentration assayed 1000 μM
T1 construct: 981-1108; made in house; host or cells: Escherichia coli BL21 (DE3) pLysS, plasmid pGEX-6P-1
T1 sequence (Q6PL18 981-1108): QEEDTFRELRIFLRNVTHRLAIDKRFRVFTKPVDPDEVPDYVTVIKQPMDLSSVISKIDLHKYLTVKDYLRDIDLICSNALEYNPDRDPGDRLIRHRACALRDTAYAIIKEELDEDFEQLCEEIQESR
Description: (§9) Surface plasmon resonance (SPR) was used to assess the direct binding of the fragments and provide Kd values for binding to both ATAD2 and BRD4. SPR can yield artefactual data where the concentration of a small-molecular analyte exceeds ∼250 μM, and accordingly, this was the highest concentration used in the assays.
1.1 Protein Purification.
The ATAD2 bromodomain 981-1108 was expressed with an N-terminal GST fusion from the pGEX-6P-1 plasmid. The plasmids were transformed into BL21 (DE3) pLysS Escherichia coli (Novagen) and then the cells grown in luria bertani (LB) media at 37 °C until an OD600 of 0.6 was reached. The temperature was reduced to 20 °C and expression induced using 0.2 mM Isopropyl β-D-1-thiogalactopyranoside (IPTG). The cells were harvested after overnight incubation and resuspended in buffer A (20 mM HEPES pH 7.4, 100 mM NaCl, 5 mM Dithiothreitol (DTT)). The cells were lysed by sonication and the lysate cleared by centrifugation (50,000 x g, 4 °C, 1 hr). The protein was passed over 5ml of glutathione Sepharose 4B resin (GE Healthcare) at 4 °C. The resin was then washed with buffer A and the protein eluted with buffer A supplemented with 10 mM glutathione. The protein was then applied to a Superdex 200 26/60 gel filtration column (GE Healthcare) equilibrated in buffer […]
1.2 Isothermal Titration Calorimetry.
ATAD2 was exchanged into ITC buffer (50 mM HEPES pH7.4, 200 mM NaCl, 1 mM DTT).
ITC measurements were carried out at 25°C on a Microcal ITC 200 (Malvern Instruments Ltd, Malvern, UK). Compound 11 at 40mM, 2% DMSO was titrated into ATAD2 prepared in the cell at 150 μM, 2% DMSO. Titrations began with an initial 0.5 μL injection followed by 19x 2 μL injections of compound, with 120s spacing between each injection, and stirred at 1000 rpm throughout the experiment. Data were then analysed using Origin 7.0 (OriginLab Corp., Burlington, NC, USA) and fit with the one-set-of-sites model.
1.3 ATAD2-Histone displacement HTRF assay.
Compounds (dissolved to 100 mM in DMSO) were dispensed into black 384 well assay plates […]
as §1, §2, §3, §4
ATAD2N1064A was achieved using standard amine coupling on a CM5 chip surface. The surface was prepared through activation with EDC/NHS, followed by injection of 10 µg/ml of respective proteins until target level 8000 RU was reached. The surface was then quenched using 1 M Ethanolamine and washed with running buffer 10 mM HEPES, 150mM NaCl, 0.01% TWEEN20, 0.5 mM TCEP and 1% DMSO with a flow rate of […]. Compounds were injected in a dose-response manner (8 concentration points ranging from 0-200 µM) in series across the control, ATAD2, BRD4, and ATAD2-N1064A flow cells using solvent correction to account for bulk refractive index changes. The reference control channel was subtracted

[3] = molecular target: T2, ATAD2 bromodomain (Homo sapiens, UniProt Q6PL18); assay: Surface plasmon resonance (SPR) direct binding to ATAD2; details: for Kd: SPR format assay, Kd above the top concentration projected by extrapolation (extrapolated Rmax from control compound)
T2 construct: 981-1108; GST (N); made in house; host or cells: Escherichia coli BL21 (DE3) pLysS, plasmid pGEX-6P-1
T2 sequence (Q6PL18 981-1108): T1 sequence (Q6PL18 981-1108)
Description: as §9, §1, §2, §3, §4, §5, §6, §7, §8

| Compound | Kd [1] [µM] | melting point [°C] | IC50 [2] [µM] | ATAD2 LE [2] | Kd [3] [µM] | ATAD2 inhibition in HTRF, in words [2] | ATAD2 binding by SPR, in words ([3]; SPR) | selectivity between ATAD2 and BRD4, in words [1] |
| --- | --- | --- | --- | --- | --- | --- | --- | --- |
| Cc1ccc(Cn2cc3c(cc2=O)C(C)(C)C(=O)N3C)cc1 [Compound 17l] | 58 | 180 to 182 | 274 ± 75 | 0.23 | > 200 |  |  |  |
| Cn1cc2c(cc1=O)C(C)(C)C(=O)N2CCO [Compound 14g] | > 2000 |  | > 1000 |  | > 2000 |  |  |  |
| CN1C(=O)C(C)(C)c2cc(=O)n(Cc3ccc(C(=O)O)cc3)cc21 [Compound 17f] | > 200 |  | 533 ± 40 | 0.19 | > 200 |  |  |  |
| CN1C(=O)C(C)(C)c2cc(=O)n(Cc3ccc(Cl)c(Cl)c3)cc21 [Compound 17n] | 65 |  | 299 ± 28 | 0.21 | 159 |  |  |  |
| CN1C(=O)C(C)(CC2CC2)c2cc(=O)n(Cc3ccc(Cl)cc3)cc21 (centres unmarked) [Compound 22f] | > 200 |  | 304 ± 83 | 0.20 | 113 |  |  |  |
| CN1C(=O)C(C)(Cc2ccccn2)c2cc(=O)n(Cc3ccc(Cl)cc3)cc21 (centres unmarked) [Compound 22b] | > 200 |  | > 1000 |  | > 200 |  |  |  |
| Cn1cc2c(cc1=O)C(C)(C)C(=O)N2 [Compound 7] | > 2000 |  |  |  |  | some inhibition was observed at the highest concentration assayed | bound too weakly to ATAD2 to allow Kd values to be calculated |  |
| CN1C(=O)C(C)(C)c2cc(=O)n(Cc3ccccc3)cc21 [Compound 17c] | 101 |  | 681 ± 120 | 0.21 | > 200 | sub-millimolar ATAD2 IC50 values |  | bound more tightly to BRD4 than to ATAD2 |
| CN1C(=O)C(C)(C)c2cc(=O)n(CCc3ccccc3)cc21 [Compound 17d] | 161 |  | 741 ± 74 | 0.20 | > 200 | sub-millimolar ATAD2 IC50 values |  | bound more tightly to BRD4 than to ATAD2 |
| Cc1nc(CC2(C)C(=O)N(C)c3cn(Cc4ccc(Cl)cc4)c(=O)cc32)cs1 (centres unmarked) [Compound 22c] | > 200 |  | 352 | 0.17 | 110 |  |  |  |
| Cn1cc2c(cc1=O)C(C)(C)C(=O)N2CCN1CCCC1 [Compound 14d] | > 200 |  | > 1000 |  | > 2000 |  |  |  |
| CN1C(=O)C(C)(C)c2cc(=O)n(Cc3ccc(C#N)cc3)cc21 [Compound 17g] | 142 |  | 562 ± 67 | 0.20 | > 200 |  |  |  |
| CN1C(=O)C(C)(C)c2cc(=O)n(Cc3ccc(Cl)cc3)cc21 [Compound 17j] | 40 |  | 190 ± 63 | 0.24 | 200 |  |  |  |
